The record followed here is the METLIN SMRT retention time set (Domingo-Almenara et al. 2019).

Molecules are shown by their SMILES.

This data set in a line: gradient 5% acetonitrile 3 min, to 50% in 2 min, to 85% in 15 min, held 3 min, 100 µL/min. The following applies: column: Zorbax Extend-C18 2.1 x 50 mm; eluents: water / acetonitrile, 0.1% formic acid. Summed up:
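Pure standards were run in mixtures of ~100 molecules by HPLC coupled to a quadrupole time-of-flight mass spectrometer. The column was a Zorbax Extend-C18 (2.1 × 50 mm, 1.8 μm) at 100 μL/min, with water and acetonitrile each containing 0.1% formic acid, in positive and negative ionization mode. Dead and dwell volumes were 40 μL and 900 μL. Retention time was taken from computationally picked adduct peaks, each manually inspected, with data collected over 3 months.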
Molecule `COc1ccc(NC(=O)c2cc3c(s2)CN(C2CCCC2)C3)c(OC)c1` came in with an RP-LC retention time of 616 s.

For `COc1ccc(NC(=O)c2c(OC)cc(=O)n3c2CCCC3)cc1OC`, the RP-LC retention time was determined as 628 s.

`COc1cc(OC)c(NC(=O)Cn2nc3cc(C)nc(-c4ccc(F)cc4)n3c2=O)cc1Cl` gave an RP-LC retention time of 899 s.

As to `Cc1ccnc(NC(=O)C2CCN(S(=O)(=O)c3ccc4c(c3)sc(=O)n4C(C)C)CC2)c1`, the RP-LC retention time came out at 794 s.

Molecule `CCc1cccc(NC(=O)N2CCc3cn(CCOC)c4cccc(c34)C2)c1` showed an RP-LC retention time of 1030 s.

Consider `CCc1nc2cc(-c3noc(-c4nn(C)c5ccccc45)n3)ccc2o1`, for which the RP-LC retention time was 1130 s.

In turn, `COc1ccc(-n2ccn3cc(-c4ccc5c(c4)OCO5)nc3c2=O)cc1Cl` yielded an RP-LC retention time of 833 s.

In turn, `O=C1C(N2CCN(S(=O)(=O)c3ccccc3)CC2)CCN1CCc1ccccc1` (stereo unspecified) registered an RP-LC retention time of 642 s.

As for `COc1cccc(-c2nc(-c3cccc(-c4ccnn4C)c3)no2)c1`, the RP-LC retention time turned out to be 1120 s.

The molecule `O=C(Cn1nc(C2CC2)c2cnn(-c3ccc(F)cc3)c2c1=O)NCC1CCCO1` (stereo unspecified) showed an RP-LC retention time of 729 s.

With `COc1ccc(-c2nnc(-c3ccccc3)o2)cc1S(=O)(=O)N1CCSCC1`, the RP-LC retention time is 955 s.

In the case of `O=C(NCCn1nnc2cc(C(=O)N3CCCC3)ccc21)Nc1ccccc1`, the RP-LC retention time turned out to be 616 s.

For the molecule `O=C(c1ccccn1)N1CCCCC1c1nncn1CC1CC1` (stereo unspecified), the RP-LC retention time was 608 s.

`Cc1oc(-c2cccc(Cl)c2)nc1Cn1nnc(-c2nc(-c3cccnc3)no2)c1C`: the RP-LC retention time amounted to 1080 s.

As to `Cc1ccc(N2CCC(NC(=O)C3CCC3)C2=O)cc1C` (stereo unspecified), the RP-LC retention time came out at 762 s.

`O=C(Cn1nc2c3cc(-c4ccccc4)nn3ccn2c1=O)NCc1ccco1` came in with an RP-LC retention time of 792 s.

`CCC(CC)CN1CCC(n2c(C)cnc2-c2cccnc2)C1` (stereo unspecified) registered an RP-LC retention time of 545 s.

As for `CCc1ccccc1NC(=O)C(C)n1cnc2nc(N3CCCCC3)ncc2c1=O` (stereo unspecified), the RP-LC retention time is 882 s.

Regarding `COc1cccc(CNC(=O)c2nnc(-c3ccc(S(=O)(=O)N4CCCCC4)cc3)o2)c1`, the RP-LC retention time is 960 s.

As for `O=C(NCc1ccc(F)cc1)Nc1nnc(-c2ccco2)o1`, the RP-LC retention time worked out at 706 s.

In the case of `Cc1cccc(NC(=O)C2CCN(S(C)(=O)=O)c3cc(Cl)ccc3O2)c1C` (stereo unspecified), the RP-LC retention time was 1090 s.

`Cc1cc2c(cc1S(=O)(=O)N1CCCC1C(=O)Nc1ccc(Cl)cc1F)OCC(=O)N2` (stereo unspecified): the RP-LC retention time worked out at 843 s.

`Cc1ccc(/C=C/S(=O)(=O)N2CC(c3nc(-c4ncccn4)no3)C2)cc1` gave an RP-LC retention time of 729 s.

Consider `O=C(CCS(=O)(=O)c1ccccc1)N1CC(c2nc(-c3cnccn3)no2)C1`, for which the RP-LC retention time stood at 606 s.

`O=C(Cn1cnc2nc(N3CCCC(C(=O)NC4CC4)C3)sc2c1=O)Nc1ccc(F)cc1F` (stereo unspecified) gave an RP-LC retention time of 673 s.

With `O=C(Cn1nc2n(c1=O)CCCC2)Nc1ccc2c(c1)OCCO2`, the RP-LC retention time amounted to 635 s.

Molecule `CCOC(=O)c1ccc(NC(=O)C2CCCN(S(C)(=O)=O)C2)cc1` (stereo unspecified) came in with an RP-LC retention time of 762 s.

For the molecule `CNS(=O)(=O)CCCOc1cccc2c1OC(C)(C)C2`, the RP-LC retention time stood at 776 s.

For `COc1cc2c(cc1C(=O)NCCOc1ccc(Cl)cc1)OCCCO2`, the RP-LC retention time came out at 982 s.

The molecule `CCCn1cc(CCNS(=O)(=O)Cc2cc(C)ccc2C)c2cccnc21` had an RP-LC retention time of 946 s.

The molecule `CCc1nc(N2CCC(C(=O)NCc3cc(OC)ccc3OC)CC2)c2c(C)scc2n1` yielded an RP-LC retention time of 691 s.

With `CC1CN(c2ccc(Br)cc2)c2nc3c(c(=O)n(CCCO)c(=O)n3C)n2C1` (stereo unspecified), the RP-LC retention time was determined as 833 s.

The molecule `Cc1cnc(C)n1C1CCN(C(=O)c2cccn2C)C1` (stereo unspecified) gave an RP-LC retention time of 580 s.

`O=C(NCCn1nnc2cc(C(=O)N3CCCC3)ccc21)Nc1ccc(Br)cc1F` showed an RP-LC retention time of 742 s.

Take `CCOC(=O)CC1(NC(=O)N2CCN(c3nc4ccccc4nc3C(F)(F)F)CC2)CCCCC1`: the RP-LC retention time stood at 1230 s.

Molecule `CCCN(Cc1cccs1)C(=O)C1CCc2nc(N3CCC(C)CC3)ncc2C1` (stereo unspecified) came in with an RP-LC retention time of 979 s.

`CCN(CC)C(=O)c1ccc2c(c1)N(CC(=O)NCCOC)C(=O)C1CCCCN21` (stereo unspecified) registered an RP-LC retention time of 688 s.

In turn, `O=C(O)/C=C\C(=O)Nc1nccs1` showed an RP-LC retention time of 646 s.

On to `CC1CCN(c2cc(-c3noc(C(=O)N4CCCC4)n3)ccn2)CC1`, for which the RP-LC retention time was determined as 764 s.

`CC(Oc1ccc(=O)n(-c2ccc(F)cc2)n1)C(=O)Nc1cccc(F)c1` (stereo unspecified) showed an RP-LC retention time of 793 s.

`COc1ccccc1Nc1c(-c2ccc(N(C)C)cc2)nc2cnccn12` displayed an RP-LC retention time of 833 s.

Molecule `O=C(Cc1ccsc1)NCc1cnoc1-c1ccc(F)cc1` yielded an RP-LC retention time of 844 s.

In the case of `Cc1ccc(NC(=O)N2CCCC(Cn3cnc4cccnc43)C2)cc1C` (stereo unspecified), the RP-LC retention time worked out at 719 s.

As to `CC(C)CN1C(=O)CCc2cc(NS(=O)(=O)c3ccc(F)cc3)ccc21`, the RP-LC retention time amounted to 861 s.

Molecule `O=C(CSCc1ccccc1)NCC1CCN(c2ncccn2)CC1` gave an RP-LC retention time of 703 s.

Consider `CCc1noc(NC(C)=O)c1-c1ccc(OC)c(S(=O)(=O)N2CCc3ccccc3C2)c1`, for which the RP-LC retention time was 628 s.

Molecule `CC(=O)c1ccc(NC(=O)Cn2c(-c3cccnc3)nc3ccccc32)cc1` yielded an RP-LC retention time of 689 s.

With `CCC1(C(=O)NCc2ccc(C)cc2)CCCCC(=O)N1` (stereo unspecified), the RP-LC retention time was found to be 707 s.

The molecule `Cc1ccccc1S(=O)(=O)N1CCCN(c2ccc(=O)n(-c3ccccc3)n2)CC1` showed an RP-LC retention time of 859 s.

On to `COc1ccc(C(O)CN2CCN(c3ccc(OC)cc3)CC2)cc1` (stereo unspecified), for which the RP-LC retention time amounted to 647 s.

Consider `COc1ccc(-c2nnc(-c3ccccc3Cl)o2)cc1S(=O)(=O)N(C)C`, for which the RP-LC retention time turned out to be 895 s.

Molecule `CSCC(CO)NC(=O)/C=C/c1c(C)[nH]c(=O)[nH]c1=O` (stereo unspecified) gave an RP-LC retention time of 564 s.

`O=C(NCc1ccccc1Cl)c1ccc2c(c1)CCN2C(=O)C1CC1` yielded an RP-LC retention time of 856 s.

Regarding `CCn1c(=O)n(CC(=O)N2CCOCC2)c(=O)c2cnc(-c3ccc(Cl)cc3)nc21`, the RP-LC retention time turned out to be 934 s.

Take `CCN(Cc1ccccc1)S(=O)(=O)c1c(C)nn(-c2ccc(-c3ccccc3)nn2)c1C`: the RP-LC retention time was found to be 1220 s.

Molecule `COC(=O)c1cnc(N2CCN(c3ccc(OC)cc3)CC2)c2ccccc12` had an RP-LC retention time of 980 s.

As for `COc1ccc2nc(C(=O)NC(C)c3ccccc3)cn2n1` (stereo unspecified), the RP-LC retention time worked out at 803 s.

As to `Cc1ccc(C)c(NC(=O)N2CCN(c3cc(-c4ccncc4)[nH]n3)CC2)c1`, the RP-LC retention time was found to be 615 s.

For the molecule `O=C(NCc1csc(C2CCCN(C(=O)c3ccccc3)C2)n1)C1CC1` (stereo unspecified), the RP-LC retention time amounted to 693 s.

Regarding `NS(=O)(=O)OC[C@@H]1C[C@@H](n2ccc3c(N[C@H]4CCc5ccccc54)ncnc32)C[C@H]1O`, the RP-LC retention time is 724 s.

`O=S(=O)(c1ccc(Cl)cc1)N1CCC(c2noc(-c3ccccc3)n2)CC1` yielded an RP-LC retention time of 1170 s.

For the molecule `COC(=O)c1ccc2c(=O)n(-c3ccc(OC)c(OC)c3)c(N3CCOCC3)nc2c1`, the RP-LC retention time amounted to 800 s.

Molecule `CCCS(=O)(=O)c1ccc(N2CCN(c3ccccc3OC)CC2)nn1` showed an RP-LC retention time of 809 s.

For the molecule `NCc1nnnn1-c1ccc(Cl)cc1`, the RP-LC retention time was determined as 522 s.

In the case of `Cc1cc(C(=O)N2CCN(c3ccccc3F)CC2)n[nH]1`, the RP-LC retention time was found to be 714 s.

`CS(=O)(=O)N1CCC(C(=O)Nc2cccc(C(F)(F)F)c2)Oc2ccccc21` (stereo unspecified): the RP-LC retention time came out at 972 s.

The molecule `CCOC(=O)c1ccc(NS(=O)(=O)c2cc3n(c2)CCCNC3=O)cc1` showed an RP-LC retention time of 1010 s.

Take `Cc1cc(CNC(=O)c2cc3ccccc3o2)c(C)o1`: the RP-LC retention time is 852 s.

Regarding `CCNC(=O)CC1=C2CCCCC2N(C)C1=O` (stereo unspecified), the RP-LC retention time was determined as 607 s.

For `CC(C)c1noc(-c2ccc(-n3cnc(C(=O)N4CCOCC4)c3)nc2)n1`, the RP-LC retention time was 745 s.

For `COc1ccc(N2CCN(c3cc(SCC(=O)Nc4c(C)cc(C)cc4C)ncn3)CC2)cc1`, the RP-LC retention time was found to be 983 s.

`O=C(Nc1ccc(OCc2nnc(-c3ccccc3)o2)cc1)c1ccccn1` had an RP-LC retention time of 905 s.

As for `Cc1ccc(-c2csc(NC(=O)Cc3csc(-c4ccccc4)n3)n2)cc1`, the RP-LC retention time came to 1210 s.

As for `Cn1ccc(C(=O)N2CCCC2c2ccc(Cl)cc2)n1` (stereo unspecified), the RP-LC retention time came out at 824 s.

Molecule `Cc1nc(C)c(-c2ccc(=O)[nH]n2)s1` had an RP-LC retention time of 558 s.

Molecule `CC1CCCN(C(=O)C2CCN(c3cc(N4CCCCC4)ncn3)CC2)C1` (stereo unspecified) came in with an RP-LC retention time of 683 s.

Turning to `CCN1C(=O)Cc2ccccc2C1C(=O)NCc1cccs1` (stereo unspecified), the RP-LC retention time is 716 s.

`N#CC1CC(c2ccccc2)Nc2cc(Cl)ccc2N1` (stereo unspecified) gave an RP-LC retention time of 912 s.

`O=C(Nc1ccc(CC(=O)N2CCOCC2)cc1)NC(c1ccccc1)c1ccccc1` had an RP-LC retention time of 740 s.

`CC1(C)CC2CC(C)(CN2c2ncnc(N)c2[N+](=O)[O-])C1` (stereo unspecified): the RP-LC retention time stood at 867 s.

Consider `CCOc1ccc(C(=O)NCc2c(-c3ccccc3)nc3sc(CC)nn23)cc1`, for which the RP-LC retention time is 943 s.
